Experimental data: patent US11584714B2 (priority 2018, dated 2023)
Where a name gives a salt, the structure may show the parent alone. Read-outs that look alike come from different tables or passages of the source. Square brackets hold non-standard residues; d marks the D form. Peptide text beside a SMILES is read from it. * marks the point of attachment. dChg = N[C@@H](C(=O)O)C1CCCCC1; Agmatine = N=C(N)NCCCCN*; Aze = O=C(O)[C@@H]1CCN1

Key:
Format in all cases: biochemical
[1] = target: MASP-2 (CCP1-CCP2-SP) (Homo sapiens (Human), UniProt O00187); experiment: biochemical
[2] = target: mMASP-2 (Mus musculus (Mouse), UniProt Q91WP0); experiment: Enzymatic inhibition of mMASP-2
[3] = target: human α-thrombin (Homo sapiens (Human), UniProt P00734); experiment: Enzymatic assay for thrombin (Boc-VPR-AMC substrate)
[4] = selectivity for MASP-2 inhibition versus thrombin
[5] = MASP-2 inhibition versus thrombin

MASP-2 (CCP1-CCP2-SP), sequence (O00187 445-686): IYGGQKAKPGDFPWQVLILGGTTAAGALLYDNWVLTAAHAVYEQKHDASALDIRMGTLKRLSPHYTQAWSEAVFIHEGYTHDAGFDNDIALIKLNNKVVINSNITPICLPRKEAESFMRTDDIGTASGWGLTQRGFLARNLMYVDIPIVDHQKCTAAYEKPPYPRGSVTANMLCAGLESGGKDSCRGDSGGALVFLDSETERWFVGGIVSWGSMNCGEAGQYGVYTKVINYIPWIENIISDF
mMASP-2, sequence (Q91WP0 20-685): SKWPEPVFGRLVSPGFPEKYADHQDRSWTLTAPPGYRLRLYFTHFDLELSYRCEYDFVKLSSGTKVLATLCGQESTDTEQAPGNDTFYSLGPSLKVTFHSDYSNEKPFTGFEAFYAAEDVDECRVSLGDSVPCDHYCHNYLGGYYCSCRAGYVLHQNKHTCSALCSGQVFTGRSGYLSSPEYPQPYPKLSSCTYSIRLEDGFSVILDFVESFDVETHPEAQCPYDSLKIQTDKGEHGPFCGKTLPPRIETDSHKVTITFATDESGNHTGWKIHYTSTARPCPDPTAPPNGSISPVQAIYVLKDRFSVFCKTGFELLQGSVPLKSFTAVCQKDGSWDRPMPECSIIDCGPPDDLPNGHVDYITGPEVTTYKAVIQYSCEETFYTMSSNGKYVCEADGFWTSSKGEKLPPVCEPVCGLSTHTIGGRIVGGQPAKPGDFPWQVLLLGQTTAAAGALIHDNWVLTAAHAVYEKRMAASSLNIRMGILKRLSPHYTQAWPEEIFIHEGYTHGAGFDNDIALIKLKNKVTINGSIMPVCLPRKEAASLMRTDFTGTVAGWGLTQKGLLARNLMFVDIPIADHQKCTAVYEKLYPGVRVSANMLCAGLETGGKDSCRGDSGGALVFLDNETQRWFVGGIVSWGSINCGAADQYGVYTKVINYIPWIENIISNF

| SMILES | Ki ([1]; read-out: MASP-2 Ki) [nM] | MASP-2 vs. thrombin selectivity [1, 4] | Ki ([2]; read-out: mMASP-2 Ki) [nM] | Ki ([3]; read-out: Thrombin Ki) [µM] | Ki [1] [nM] | Ki ([3]; Thrombin Ki (μM)) [µM] | MASP-2 vs. thrombin selectivity [1, 5] | Ki [2] [nM] |
| --- | --- | --- | --- | --- | --- | --- | --- | --- |
| Cc1nc(N)ccc1CNC(=O)[C@H](C)NC(=O)[C@H]1C[C@H](Cc2ccc3ccccc3c2)CN1 [compound 1338, (2R,4S)—N—((S)-1-(((6-Amino-2-methylpyridin-3-yl)methyl)amino)-1-oxopropan-2-yl)-4-(naphthalen-2-ylmethyl)pyrrolidine-2-carboxamide Dihydrochloride] | < 500 | **** (≥100-fold) | < 500 | > 25 |  |  |  |  |
| C[C@H](NC(=O)[C@H]1C[C@H](c2ccccc2)CN1)C(=O)NCc1cc(Cl)cc(C(N)=O)c1 [compound 1387, (2R,4R)—N—((S)-1-((3-Carbamoyl-5-chlorobenzyl)amino)-1-oxopropan-2-yl)-4-phenylpyrrolidine-2-carboxamide Trifluoroacetate salt] |  |  | 10000 to 25000 | > 25 | 2500 to 10000 |  |  |  |
| COc1ccc(-c2c[nH]c(C(=O)N[C@@H](C)C(=O)NCc3ccc(C(=N)N)cc3)c2)cc1 [compound 1238, (S)—N-(1-((4-Carbamimidoylbenzyl)amino)-1-oxopropan-2-yl)-4-(4-methoxyphenyl)-1H-pyrrole-2-carboxamide] | < 500 | *** (≥25 to <100-fold) | < 500 |  |  | 2.5 to 10 |  |  |
| C[C@H](NC(=O)[C@H]1C[C@H](Cc2ccc(F)c(Cl)c2)CN1)C(=O)NCc1cnc2c(c1)c(Cl)cn2C [compound 1474, (2R,4S)—N—((S)-1-(((3-Chloro-1-methyl-1H-pyrrolo[2,3-b]pyridin-5-yl)methyl)amino)-1-oxopropan-2-yl)-4-(3-chloro-4-fluorobenzyl)pyrrolidine-2-carboxamide Trifluoroacetate salt] | < 500 | **** (≥100-fold) | < 500 | > 25 |  |  |  |  |
| C[C@H](NC(=O)[C@H](N)CCc1ccccc1)C(=O)NCc1cc(Cl)ccc1-n1cncn1 [compound 1341, (R)-2-amino-N—((S)-1-((5-chloro-2-(1H-1,2,4-triazol-1-yl)benzyl)amino)-1-oxopropan-2-yl)-4-phenylbutanamide] |  | −− (<1.0-fold) | > 25000 |  | 10000 to 25000 | 0.5 to 2.5 |  |  |
| C[C@H](NC(=O)[C@H](N)Cc1cccc2ccccc12)C(=O)NCc1ccc(C(=N)N)cc1 [compound 1092] | < 500 |  | < 500 | < 0.5 |  |  | −− (less than 1.0-fold) |  |
| C[C@H](NC(=O)[C@H]1C[C@H](c2ccccc2)CN1)C(=O)NCc1cc(Cl)c[nH]c1=O [compound 1301, (2R,4R)—N—((S)-1-(((5-Chloro-2-oxo-1,2-dihydropyridin-3-yl)methyl)amino)-1-oxopropan-2-yl)-4-phenylpyrrolidine-2-carboxamide Hydrochloride] |  |  | > 25000 | > 25 | 2500 to 10000 |  |  |  |
| Cc1nc(N)ccc1CNC(=O)[C@H](C)N(C)C(=O)[C@H]1C[C@H](Cc2ccc(Br)cc2)CN1 [compound 1497, (2R,4S)—N—((S)-1-(((6-Amino-2-methylpyridin-3-yl)methyl)amino)-1-oxopropan-2-yl)-4-(4-bromobenzyl)-N-methylpyrrolidine-2-carboxamide Di-trifluoroacetate salt] | < 500 | ** (≥5.0 to <25-fold) | 2500 to 10000 |  |  | 2.5 to 10 |  |  |
| Cc1cc(C[C@@H]2CN[C@@H](C(=O)N[C@@H](C)C(=O)NCc3ccc(N)nc3C)C2)ccn1 [compound 1469, (2R,4S)—N—((S)-1-(((6-Amino-2-methylpyridin-3-yl)methyl)amino)-1-oxopropan-2-yl)-4-((2-methylpyridin-4-yl)methyl)pyrrolidine-2-carboxamide Dihydrochloride] | < 500 | **** (≥100-fold) | < 500 |  |  | 2.5 to 10 |  |  |
| C[C@H](NC(=O)[C@H]1C[C@H](c2ccccc2)CN1)C(=O)NCc1cc2c(Br)cncc2[nH]1 [compound 1493, (2R,4R)—N—((S)-1-(((4-Bromo-1H-pyrrolo[2,3-c]pyridin-2-yl)methyl)amino)-1-oxopropan-2-yl)-4-phenylpyrrolidine-2-carboxamide Di-trifluoroacetate salt] |  | * (≥1.0 to <5.0-fold) | > 25000 |  | 10000 to 25000 | 10 to 25 |  |  |
| CCCOC(=O)NC(=N)c1ccc(CNC(=O)[C@H](C)NC(=O)[C@H]2C[C@H](c3ccccc3)CN2)cc1 [compound 1263, Propyl (imino(4-(((S)-2-((2R,4R)-4-phenylpyrrolidine-2-carboxamido)propanamido)methyl)phenyl)methyl)carbamate] |  |  |  | > 25 | 2500 to 10000 |  |  | 2500 to 10000 |
| N=C(N)NCCCCNC(=O)[C@@H]1CCN1C(=O)[C@H](N)C1CCCCC1 [compound 1006, (S)-1-((R)-2-Amino-2-cyclohexylacetyl)-N-(4-guanidinobutyl)azetidine-2-carboxamide Dihydrochloride] (H-[dChg]-[Aze]-Agmatine) | < 500 |  | < 500 | < 0.5 |  |  | −− (less than 1.0-fold) |  |
| Cc1nc(N)ccc1CNC(=O)[C@H](C)NC(=O)[C@H]1C[C@H](Cc2ccc(Cc3ccccc3)cc2)CN1 [compound 1427, (2R,4S)—N—((S)-1-(((6-Amino-2-methylpyridin-3-yl)methyl)amino)-1-oxopropan-2-yl)-4-(4-benzylbenzyl)pyrrolidine-2-carboxamide di-trifluoroacetate salt] | < 500 | **** (≥100-fold) | < 500 | > 25 |  |  |  |  |
| Cc1nc(N)ccc1CNC(=O)[C@H](C)NC(=O)[C@H]1C[C@H](Cc2ccc(C3CCC3)cc2)CN1 [compound 1379, (2R,4S)—N—((S)-1-(((6-Amino-2-methylpyridin-3-yl)methyl)amino)-1-oxopropan-2-yl)-4-(4-cyclobutylbenzyl)pyrrolidine-2-carboxamide Di-trifluoroacetate salt] | < 500 | **** (≥100-fold) | < 500 | > 25 |  |  |  |  |
| C[C@H](NC(=O)[C@H]1C[C@H](c2ccccc2)CN1)C(=O)NCc1ccn2ccnc2c1 [compound 1366, (2R,4R)—N—((S)-1-((Imidazo[1,2-a]pyridin-7-ylmethyl)amino)-1-oxopropan-2-yl)-4-phenylpyrrolidine-2-carboxamide Dihydrochloride] |  |  | 2500 to 10000 | > 25 | 2500 to 10000 |  |  |  |
| C[C@H](NC(=O)[C@H]1C[C@H](c2ccccc2)CN1)C(=O)NCc1cc2ccncc2[nH]1 [compound 1495, (2R,4R)—N—((S)-1-(((1H-Pyrrolo[2,3-c]pyridin-2-yl)methyl)amino)-1-oxopropan-2-yl)-4-phenylpyrrolidine-2-carboxamide Di-trifluoroacetate salt] | 2500 to 10000 | ** (≥5.0 to <25-fold) |  | > 25 |  |  |  | 500 to 2500 |
| C[C@H](NC(=O)[C@H](N)CCc1ccc(Cl)cc1)C(=O)NCc1ccc(C(=N)N)cc1 [compound 1080] | < 500 |  | < 500 | < 0.5 |  |  | ** (5.0 to 25-fold) |  |
| C[C@H](NC(=O)[C@H]1C[C@H](Cc2ccc3ccccc3c2)CN1)C(=O)NCc1cc(Cl)ccc1-n1cnnn1 [compound 1385, (2R,4S)—N—((S)-1-((5-chloro-2-(1H-tetrazol-1-yl)benzyl)amino)-1-oxopropan-2-yl)-4-(naphthalen-2-ylmethyl)pyrrolidine-2-carboxamide Trifluoroacetate salt] | < 500 | ** (≥5.0 to <25-fold) | < 500 | < 0.5 |  |  |  |  |
| C[C@H](NC(=O)[C@@H](CCc1ccccc1)NCCc1ccccc1)C(=O)NCc1ccc(C(=N)N)cc1 [compound 1340, (R)—N—((S)-1-((4-Carbamimidoylbenzyl)amino)-1-oxopropan-2-yl)-2-(phenethylamino)-4-phenylbutanamide Dihydrochloride] | < 500 | ** (≥5.0 to <25-fold) | < 500 | < 0.5 |  |  |  |  |
| C[C@H](NC(=O)[C@H]1C[C@H](Cc2ccc(-c3ccccc3)cc2)CN1)C(=O)NCc1cnc2[nH]cc(Cl)c2c1 [compound 1356, (2R,4S)-4-([1,1′-Biphenyl]-4-ylmethyl)-N-((S)-1-(((3-chloro-1H-pyrrolo[2,3-b]pyridin-5-yl)methyl)amino)-1-oxopropan-2-yl)pyrrolidine-2-carboxamide Di-trifluoroacetate salt] | < 500 | **** (≥100-fold) | < 500 | > 25 |  |  |  |  |
| Cc1cccc([C@H]2CCN[C@@H](C(=O)N[C@@H](C)C(=O)NCc3ccc(C(=N)N)cc3)C2)c1 [compound 1231, (2R,4S)—N—((S)-1-((4-Carbamimidoylbenzyl)amino)-1-oxopropan-2-yl)-4-(m-tolyl)piperidine-2-carboxamide] | < 500 | **** (≥100-fold) | < 500 |  |  | 2.5 to 10 |  |  |
| Cc1cccc([C@H]2CN[C@@H](C(=O)N[C@@H](C)C(=O)NCc3ccc(C(=N)N)cc3)C2)c1 [compound 1247, (2R,4S)—N—((S)-1-((4-Carbamimidoylbenzyl)amino)-1-oxopropan-2-yl)-4-(m-tolyl)pyrrolidine-2-carboxamide] | < 500 | *** (≥25 to <100-fold) | < 500 |  |  | 0.5 to 2.5 |  |  |
| Cc1nc(N)ccc1CNC(=O)[C@H](C)NC(=O)[C@H]1C[C@@H](c2ccccc2)CCN1CCCC(=O)O [compound 1439, 4-((2R,4S)-2-(((S)-1-(((6-Amino-2-methylpyridin-3-yl)methyl)amino)-1-oxopropan-2-yl)carbamoyl)-4-phenylpiperidin-1-yl)butanoic acid Trifluoroacetate salt] | < 500 |  | 2500 to 10000 | > 25 |  |  |  |  |
